In brackets after ≈: the same amount, converted by molar mass.
How the values were obtained:
Format in all cases: cell-based
[1] = tested on: MGC-803 gastric cancer cell line; experiment: CCK-8 proliferation inhibition; details: concentration of 30 μM; for inhibition at 30 µM: Homo sapiens, MGC-803, 72 h; for Inhibition of proliferation, Gastric cancer MGC-803: 72 hours, 30 µM
Outline: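 Using media specific to each line (1640 for MGC-803 and Jurkat, F12 for PC3, DMEM high glucose for MCF-7, each with 10% newborn bovine serum), cells at 2000/well were treated for 72 h with serially formulated compounds, then assessed with CCK-8 diluted 1:10.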

[2] = tested on: A549 lung cancer cell line; experiment: CCK-8 proliferation inhibition; details: concentration of 30 μM; for inhibition at 30 µM: Homo sapiens, A549, 72 h
Outline: (§1)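 Plating at 2000 cells/well, then incubation overnight at 37° C. Next, a range of compound concentrations for 72 hours (control 1‰ DMSO). Finally, medium decanted and CCK-8 diluted 1:10 added.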

[3] = tested on: BEL-7402 liver cancer cell line; experiment: CCK-8 proliferation inhibition; details: concentration of 30 μM, 72 hours, 30 µM
Outline: as §1

[4] = MIC in vitro anti-bacterial experiments, Gram-positive bacteria; details: lowest MIC reached; read-out: minimum inhibitory concentration against Gram-positive bacteria
Description: 1. The invention adopts the two-fold agar dilution method recommended by the operating procedure of antimicrobial susceptibility testing set by American Clinical and Laboratory Standards Institute (CLSI) to determine the Minimum Inhibitory Concentration (MIC) of the test samples against the tested strains.

[5] = tested on: methicillin-resistant Staphylococcus epidermidis (MRSE); experiment: MIC, two-fold agar dilution (CLSI), clinical isolates
Outline: (§2)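 CLSI two-fold agar dilution; MIC of test samples read per tested strain.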

[6] = tested on: Streptococcus pneoumoniae (SPN); experiment: as above
Outline: as §2

[7] = tested on: methicillin-sensitive Staphylococcus epidermidis (MSSE); experiment: as above
Outline: as §2

[8] = tested on: Enterococcus faecium (EFM); experiment: as above
Outline: as §2

[9] = tested on: methicillin-resistant Staphylococcus aureus (MRSA); experiment: as above
Outline: as §2

[10] = tested on: Enterococcus faecalis (EFA); experiment: as above
Outline: as §2

[11] = tested on: Escherichia coli (including ESBLs, non-ESBLs); experiment: as above
Outline: as §2

[12] = tested on: Moraxella catarrhalis (BCA); experiment: as above
Outline: as §2

[13] = tested on: methicillin-sensitive Staphylococcus aureus (MSSA); experiment: as above
Outline: as §2

[14] = tested on: HCT-116 colorectal cancer cell line; experiment: CCK-8 proliferation inhibition; details: concentration of 30 μM, 72 hours, CCK-8; for HCT116 inhibition rate/%: 30 µM
Outline: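 Proliferation over 72 hours of compound treatment was measured with CCK-8 against a 1‰ DMSO control.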

CC(C)(C)c1cc(NC(=O)[C@@H]2CC3(CC3)CN2C(=O)[C@H](CC2CCCC2)CN(O)C=O)no1 [Example 38]
inhibition at 30 µM [1]: > 50%
Inhibition of proliferation, Gastric cancer MGC-803 [1]: 50%
inhibition at 30 µM [2]: 38%
Inhibition of proliferation, Liver cancer BEL-7402 [3]: 75%
MIC [4]: < 0.008 µg/mL
MIC (anti-bacterial activity) ([5]; strain MRSE 15-1): 0.25 µg/mL (≈ 0.543 µM)
MIC (anti-bacterial activity) ([5]; strain MRSE 15-2): 0.25 µg/mL (≈ 0.543 µM)
MIC (anti-bacterial activity) ([5]; strain MRSE 15-3): 0.25 µg/mL (≈ 0.543 µM)
MIC (anti-bacterial activity) ([5]; strain MRSE 15-7): 0.25 µg/mL (≈ 0.543 µM)
MIC (anti-bacterial activity) ([6]; strain SPN 16-2): 0.25 µg/mL (≈ 0.543 µM)
MIC (anti-bacterial activity) ([6]; strain SPN 16-4): 0.5 µg/mL (≈ 1.09 µM)
MIC (anti-bacterial activity) ([7]; strain MSSE 15-3): 0.25 µg/mL (≈ 0.543 µM)
MIC (anti-bacterial activity) ([7]; strain MSSE 15-4): 0.25 µg/mL (≈ 0.543 µM)
MIC (anti-bacterial activity) ([7]; strain MSSE 15-5): 0.25 µg/mL (≈ 0.543 µM)
MIC (anti-bacterial activity) ([7]; strain MSSE 15-6): < 0.008 µg/mL
MIC (anti-bacterial activity) ([8]; strain EFM 15-1): 0.25 µg/mL (≈ 0.543 µM)
MIC (anti-bacterial activity) ([8]; strain EFM 15-2): 0.25 µg/mL (≈ 0.543 µM)
MIC (anti-bacterial activity) ([8]; strain EFM 15-3): 0.25 µg/mL (≈ 0.543 µM)
MIC (anti-bacterial activity) ([8]; strain EFM 15-4): 0.5 µg/mL (≈ 1.09 µM)
MIC (anti-bacterial activity) ([8]; strain EFM 15-5): 0.25 µg/mL (≈ 0.543 µM)
MIC (anti-bacterial activity) ([8]; strain EFM 15-6): 0.5 µg/mL (≈ 1.09 µM)
MIC (anti-bacterial activity) ([9]; strain MRSA 15-1): 0.125 µg/mL (≈ 0.271 µM)
MIC (anti-bacterial activity) ([9]; strain MRSA 15-2): 0.125 µg/mL (≈ 0.271 µM)
MIC (anti-bacterial activity) ([9]; strain MRSA 15-3): 0.125 µg/mL (≈ 0.271 µM)
MIC (anti-bacterial activity) ([9]; strain MRSA 15-4): 0.25 µg/mL (≈ 0.543 µM)
MIC (anti-bacterial activity) ([10]; strain EFA 15-1): 4 µg/mL (≈ 8.68 µM)
MIC (anti-bacterial activity) ([10]; strain EFA 15-2): 4 µg/mL (≈ 8.68 µM)
MIC (anti-bacterial activity) ([10]; strain EFA 15-3): 0.25 µg/mL (≈ 0.543 µM)
MIC (anti-bacterial activity) ([10]; strain EFA 15-4): 4 µg/mL (≈ 8.68 µM)
MIC (anti-bacterial activity) ([10]; strain EFA 15-5): 4 µg/mL (≈ 8.68 µM)
MIC (anti-bacterial activity) ([10]; strain EFA 15-6): 4 µg/mL (≈ 8.68 µM)
MIC (anti-bacterial activity) ([10]; strain EFA 15-9): 4 µg/mL (≈ 8.68 µM)
MIC (anti-bacterial activity) ([11]; strain ECO+ 15-1): 16 µg/mL (≈ 34.7 µM)
MIC (anti-bacterial activity) ([11]; strain ECO+ 15-2): 32 µg/mL (≈ 69.5 µM)
MIC (anti-bacterial activity) ([11]; strain ECO+ 15-3): 16 µg/mL (≈ 34.7 µM)
MIC (anti-bacterial activity) ([11]; strain ECO+ 15-4): 16 µg/mL (≈ 34.7 µM)
MIC (anti-bacterial activity) ([11]; strain ECO− 15-1): 16 µg/mL (≈ 34.7 µM)
MIC (anti-bacterial activity) ([11]; strain ECO− 15-2): 32 µg/mL (≈ 69.5 µM)
MIC (anti-bacterial activity) ([11]; strain ECO− 15-3): 32 µg/mL (≈ 69.5 µM)
MIC (anti-bacterial activity) ([11]; strain ECO− 15-4): 32 µg/mL (≈ 69.5 µM)
Anti-bacterial activity (MIC), strain BCA 14-10 ([12]; clinical isolate BCA 14-10): 0.25 µg/mL
MIC (anti-bacterial activity) ([12]; strain BCA 14-1): 0.25 µg/mL (≈ 0.543 µM)
MIC (anti-bacterial activity) ([12]; strain BCA 14-4): 1 µg/mL (≈ 2.17 µM)
MIC (anti-bacterial activity) ([12]; strain BCA 14-5): 0.5 µg/mL (≈ 1.09 µM)
MIC (anti-bacterial activity) ([12]; strain BCA 14-6): 1 µg/mL (≈ 2.17 µM)
MIC (anti-bacterial activity) ([12]; strain BCA 14-7): 0.25 µg/mL (≈ 0.543 µM)
MIC (anti-bacterial activity) ([12]; strain BCA 14-8): 0.25 µg/mL (≈ 0.543 µM)
MIC (anti-bacterial activity) ([13]; strain MSSA 15-3): 0.25 µg/mL (≈ 0.543 µM)
MIC (anti-bacterial activity) ([13]; strain MSSA 15-4): 0.25 µg/mL (≈ 0.543 µM)
MIC (anti-bacterial activity) ([13]; strain MSSA 15-5): 0.125 µg/mL (≈ 0.271 µM)
MIC (anti-bacterial activity) ([13]; strain MSSA 15-6): 0.125 µg/mL (≈ 0.271 µM)
inhibition at 30 µM ([14]; Homo sapiens, HCT-116, 72 h, read-out: HCT116 inhibition rate/%): > 50%
HCT116 inhibition rate/% [14]: 52%

O=C(C[C@@H](CC1CCCC1)C(=O)N1CC2(CC2)C[C@H]1C(=O)Nc1nccs1)NO [Example 72, (S)-5-((R)-2-(cyclopentylmethyl)-4-(hydroxyamino)-4-oxobutanoyl)-N-(thiazol-2-yl)-5-azaspiro[2.4]heptane-6-carboxamide]
inhibition at 30 µM [1]: > 50%
Inhibition of proliferation, Gastric cancer MGC-803 [1]: 63%
inhibition at 30 µM [2]: > 50%
Inhibition of proliferation, Lung cancer A549 ([2]; 72 hours, 30 µM): 50%
Inhibition of proliferation, Liver cancer BEL-7402 [3]: 76%
MIC [4]: < 0.008 µg/mL
Anti-bacterial activity (MIC), strain MRSE 15-1 ([5]; clinical isolate MRSE 15-1): 0.03 µg/mL
Anti-bacterial activity (MIC), strain MRSE 15-2 ([5]; clinical isolate MRSE 15-2): 0.125 µg/mL
Anti-bacterial activity (MIC), strain MRSE 15-3 ([5]; clinical isolate MRSE 15-3): 0.125 µg/mL
Anti-bacterial activity (MIC), strain MRSE 15-7 ([5]; clinical isolate MRSE 15-7): 0.125 µg/mL
Anti-bacterial activity (MIC) ([6]; strain SPN 16-2): 0.5 µg/mL
Anti-bacterial activity (MIC) ([6]; strain SPN 16-4): 0.25 µg/mL
Anti-bacterial activity (MIC), strain MSSE 15-3 ([7]; clinical isolate MSSE 15-3): 0.06 µg/mL
Anti-bacterial activity (MIC), strain MSSE 15-4 ([7]; clinical isolate MSSE 15-4): 0.125 µg/mL
Anti-bacterial activity (MIC), strain MSSE 15-5 ([7]; clinical isolate MSSE 15-5): 0.125 µg/mL
Anti-bacterial activity (MIC), strain MSSE 15-6 ([7]; clinical isolate MSSE 15-6): < 0.008 µg/mL
Anti-bacterial activity (MIC) ([8]; strain EFM 15-1): 32 µg/mL
Anti-bacterial activity (MIC) ([8]; strain EFM 15-2): 32 µg/mL
Anti-bacterial activity (MIC) ([8]; strain EFM 15-3): 32 µg/mL
Anti-bacterial activity (MIC) ([8]; strain EFM 15-4): 0.5 µg/mL
Anti-bacterial activity (MIC) ([8]; strain EFM 15-5): 0.125 µg/mL
Anti-bacterial activity (MIC) ([8]; strain EFM 15-6): 0.5 µg/mL
Anti-bacterial activity (MIC), strain MRSA 15-1 ([9]; clinical isolate MRSA 15-1): 0.06 µg/mL
Anti-bacterial activity (MIC), strain MRSA 15-2 ([9]; clinical isolate MRSA 15-2): 0.125 µg/mL
Anti-bacterial activity (MIC), strain MRSA 15-3 ([9]; clinical isolate MRSA 15-3): 0.06 µg/mL
Anti-bacterial activity (MIC), strain MRSA 15-4 ([9]; clinical isolate MRSA 15-4): 0.125 µg/mL
Anti-bacterial activity (MIC) ([10]; strain EFA 15-1): 32 µg/mL
Anti-bacterial activity (MIC) ([10]; strain EFA 15-2): 32 µg/mL
Anti-bacterial activity (MIC) ([10]; strain EFA 15-3): 32 µg/mL
Anti-bacterial activity (MIC) ([10]; strain EFA 15-4): 32 µg/mL
Anti-bacterial activity (MIC) ([10]; strain EFA 15-5): 32 µg/mL
Anti-bacterial activity (MIC) ([10]; strain EFA 15-6): 32 µg/mL
Anti-bacterial activity (MIC) ([10]; strain EFA 15-9): 2 µg/mL
Anti-bacterial activity (MIC), strain ECO+ 15-1 ([11]; clinical isolate ECO+ 15-1): 16 µg/mL
Anti-bacterial activity (MIC), strain ECO+ 15-2 ([11]; clinical isolate ECO+ 15-2): 16 µg/mL
Anti-bacterial activity (MIC), strain ECO+ 15-3 ([11]; clinical isolate ECO+ 15-3): 16 µg/mL
Anti-bacterial activity (MIC), strain ECO+ 15-4 ([11]; clinical isolate ECO+ 15-4): 16 µg/mL
Anti-bacterial activity (MIC), strain ECO− 15-1 ([11]; clinical isolate ECO− 15-1): 16 µg/mL
Anti-bacterial activity (MIC), strain ECO− 15-2 ([11]; clinical isolate ECO− 15-2): 16 µg/mL
Anti-bacterial activity (MIC), strain ECO− 15-3 ([11]; clinical isolate ECO− 15-3): 16 µg/mL
Anti-bacterial activity (MIC), strain ECO− 15-4 ([11]; clinical isolate ECO− 15-4): 16 µg/mL
Anti-bacterial activity (MIC) ([12]; strain BCA 14-1): 0.25 µg/mL
Anti-bacterial activity (MIC) ([12]; strain BCA 14-4): 0.5 µg/mL
Anti-bacterial activity (MIC) ([12]; strain BCA 14-5): 0.125 µg/mL
Anti-bacterial activity (MIC) ([12]; strain BCA 14-6): 0.125 µg/mL
Anti-bacterial activity (MIC) ([12]; strain BCA 14-7): 0.5 µg/mL
Anti-bacterial activity (MIC) ([12]; strain BCA 14-8): 0.25 µg/mL
Anti-bacterial activity (MIC) ([12]; strain BCA 14-10): 0.125 µg/mL
Anti-bacterial activity (MIC), strain MSSA 15-3 ([13]; clinical isolate MSSA 15-3): 0.125 µg/mL
Anti-bacterial activity (MIC), strain MSSA 15-4 ([13]; clinical isolate MSSA 15-4): 0.06 µg/mL
Anti-bacterial activity (MIC), strain MSSA 15-5 ([13]; clinical isolate MSSA 15-5): 0.03 µg/mL
Anti-bacterial activity (MIC), strain MSSA 15-6 ([13]; clinical isolate MSSA 15-6): 16 µg/mL
HCT116 inhibition rate/% [14]: 75%

— patent US10738028B2, “Spiro three-membered ring, spiro five-membered ring peptide deformylase inhibitor and use thereof in antibacteria and anti-tumor” (priority 2016, dated 2020)
